Results taken from publication PMC6881171, “A conserved ATP- and Scc2/4-dependent activity for cohesin in tethering DNA molecules” (Science Advances, 2019).

Target: T1, budding yeast cohesin tetramer (Smc1, Smc3, Scc1/Mcd1, Scc3) with Scc2-Scc4 loader complex (Saccharomyces cerevisiae, UniProt P32908+P47037)
T1 construct: tetramer overexpressed in S. cerevisiae W303-1a; Smc1-3xStrepII, Mcd1-8xHis-3xHA; loader Scc2-3xmyc-3xStrepII with Scc4; tags kept; with Sister chromatid cohesion protein 1; Cohesin subunit SCC3; Sister chromatid cohesion protein 2; MAU2 chromatid cohesion factor homolog
Assay: [gamma-32P]ATP hydrolysis, thin-layer chromatography
Format: biochemical
Settings: 30 nM cohesin, 60 nM Scc2/4, 0.2 nM lambda-DNA, 400 uM ATP, 0.5 mM MgCl2, 20 mM NaCl, pH 7.0, 29 C; labelled compound

In the case of `Nc1ncnc2c1ncn2[C@@H]1O[C@H](COP(=O)(O)OP(=O)(O)OP(=O)(O)O)[C@@H](O)[C@H]1O` [ATP], the “[gamma-32P]ATP hydrolysis, thin-layer chromatography” value is reported as “our purified Scc2-Scc4 complex was able to stimulate cohesin ATPase activity”.
